Key:
[1] = system: Pfeiffer cells; assay: Cell proliferation assay, Pfeiffer; type: cell-based; conditions: Homo sapiens, Pfeiffer, 144 h; 6 days' growth, cell counting kit-8
Protocol: Cell lines Pfeiffer (CRL-2632), suDHL-6 (CRL-2959) and suDHL-10 (CRL-2963) were obtained from ATCC. All cell lines were cultured in RPMI-1640 medium (Gibco) plus 10% FBS (Gibco). Cells are harvested by centrifuge and densities are determined using a CounterStar cell counter. Appropriate number of cells are plated in a96-well culture plate and pre-incubate overnight. Tested compounds are 1:3 diluted for 8-points and added into each well. After 6 days' growth, cell counting kit-8 (Dojindo) is used to detect cell viability and read on Tecan infinite pro. IC50s are counted by XLfit using a four-parameter model.

[2] = target: T1, PRC2 (EZH2-Y641F) (Homo sapiens, UniProt Q15910, Y641F); assay: In vitro methyltransferase assay; type: biochemical
T1 construct: purchased Active motif
Protocol: Recombinant PRC2 (EZH2-Y641F) was purchased from Active motif, S-adenosyl-methionin chloride (SAM) and Poly-L-lysine (PLL) were purchased from Sigma-Aldrich, H3(1-50)K27me1 peptide was purchased from Cisbio. LANCEUltra (Perkinelmer) system was used for detection. For the enzyme activity test, tested compounds are 1:3 diluted for 8-points, and added into each well, then 100 ng enzyme is added. And then the buffer [20 mM Tris pH8.5, 2 mM MgCl2, 0.01% Tween-20, 1 mM TCEP] containing […]/250 nM H3 (1-50)K27me1 premixtures are added. After 3 hours enzyme reaction at RT, the premixed detection buffer (PLL, Europium antibody and Ulight) is added, and react for 1 h at RT, then read fluorescence on Tecan infinite pro. IC50s are counted by XLfit using a four-parameter model.

[3] = Dynamic solubility experiment; type: physicochemical; conditions: for Solubility: room temperature, 24 h
From the text: The free base samples and the two crystal forms were plotted separately in the experiment.

[4] = Solid state stability experiment; type: physicochemical
From the text: Detected changes in crystal form and purity at 4 and 7 days.

T1 sequence (Q15910 whole entry Y641F): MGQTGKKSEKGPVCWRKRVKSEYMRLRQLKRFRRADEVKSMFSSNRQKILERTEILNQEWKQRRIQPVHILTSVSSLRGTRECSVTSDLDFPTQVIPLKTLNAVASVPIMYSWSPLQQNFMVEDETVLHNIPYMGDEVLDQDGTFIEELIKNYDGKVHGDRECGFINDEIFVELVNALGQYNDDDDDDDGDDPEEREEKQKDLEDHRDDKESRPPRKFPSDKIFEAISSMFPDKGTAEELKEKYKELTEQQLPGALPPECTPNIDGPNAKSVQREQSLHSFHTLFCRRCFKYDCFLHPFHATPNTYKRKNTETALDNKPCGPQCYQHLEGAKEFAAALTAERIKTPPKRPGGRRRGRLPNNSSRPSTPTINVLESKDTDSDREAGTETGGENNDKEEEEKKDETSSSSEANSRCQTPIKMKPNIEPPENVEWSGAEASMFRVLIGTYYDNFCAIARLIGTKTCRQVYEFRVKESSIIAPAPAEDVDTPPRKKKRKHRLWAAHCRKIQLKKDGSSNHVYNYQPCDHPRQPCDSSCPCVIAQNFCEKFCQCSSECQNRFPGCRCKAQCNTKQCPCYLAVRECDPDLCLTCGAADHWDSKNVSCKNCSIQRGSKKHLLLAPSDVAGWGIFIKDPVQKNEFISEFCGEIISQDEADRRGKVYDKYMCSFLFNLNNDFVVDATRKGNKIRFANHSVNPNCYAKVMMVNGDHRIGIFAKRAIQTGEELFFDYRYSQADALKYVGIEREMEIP
T1 sequence (O75530 whole entry partner): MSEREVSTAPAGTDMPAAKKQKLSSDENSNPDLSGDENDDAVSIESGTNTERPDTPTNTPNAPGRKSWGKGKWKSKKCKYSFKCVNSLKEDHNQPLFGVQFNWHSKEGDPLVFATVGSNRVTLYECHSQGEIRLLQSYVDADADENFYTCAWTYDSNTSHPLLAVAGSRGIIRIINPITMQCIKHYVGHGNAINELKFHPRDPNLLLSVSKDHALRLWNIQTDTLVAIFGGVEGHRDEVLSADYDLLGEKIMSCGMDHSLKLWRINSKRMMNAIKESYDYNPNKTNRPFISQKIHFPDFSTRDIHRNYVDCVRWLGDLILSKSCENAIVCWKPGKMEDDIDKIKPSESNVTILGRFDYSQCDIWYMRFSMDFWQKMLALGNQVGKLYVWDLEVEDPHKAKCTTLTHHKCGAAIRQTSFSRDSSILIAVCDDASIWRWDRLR
T1 sequence (Q15022 whole entry partner): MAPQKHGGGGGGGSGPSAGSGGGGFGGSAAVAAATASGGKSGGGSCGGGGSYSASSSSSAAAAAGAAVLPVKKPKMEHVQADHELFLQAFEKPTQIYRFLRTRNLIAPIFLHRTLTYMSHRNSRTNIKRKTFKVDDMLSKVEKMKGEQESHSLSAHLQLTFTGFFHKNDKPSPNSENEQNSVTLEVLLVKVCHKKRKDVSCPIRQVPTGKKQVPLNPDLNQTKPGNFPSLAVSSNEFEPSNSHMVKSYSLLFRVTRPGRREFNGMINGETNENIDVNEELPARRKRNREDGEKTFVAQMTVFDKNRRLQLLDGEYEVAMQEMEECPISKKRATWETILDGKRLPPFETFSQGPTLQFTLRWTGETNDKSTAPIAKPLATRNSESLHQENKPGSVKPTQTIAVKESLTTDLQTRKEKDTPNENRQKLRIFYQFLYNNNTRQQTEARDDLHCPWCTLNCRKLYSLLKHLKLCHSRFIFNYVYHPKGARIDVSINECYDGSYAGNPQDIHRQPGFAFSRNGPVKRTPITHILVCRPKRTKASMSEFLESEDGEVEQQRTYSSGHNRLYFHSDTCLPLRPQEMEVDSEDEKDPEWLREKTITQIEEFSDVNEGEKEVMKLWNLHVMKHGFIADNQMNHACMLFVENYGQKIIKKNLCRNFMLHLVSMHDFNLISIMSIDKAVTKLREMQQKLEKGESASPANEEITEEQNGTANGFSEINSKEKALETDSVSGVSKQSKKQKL
T1 sequence (Q09028 whole entry partner): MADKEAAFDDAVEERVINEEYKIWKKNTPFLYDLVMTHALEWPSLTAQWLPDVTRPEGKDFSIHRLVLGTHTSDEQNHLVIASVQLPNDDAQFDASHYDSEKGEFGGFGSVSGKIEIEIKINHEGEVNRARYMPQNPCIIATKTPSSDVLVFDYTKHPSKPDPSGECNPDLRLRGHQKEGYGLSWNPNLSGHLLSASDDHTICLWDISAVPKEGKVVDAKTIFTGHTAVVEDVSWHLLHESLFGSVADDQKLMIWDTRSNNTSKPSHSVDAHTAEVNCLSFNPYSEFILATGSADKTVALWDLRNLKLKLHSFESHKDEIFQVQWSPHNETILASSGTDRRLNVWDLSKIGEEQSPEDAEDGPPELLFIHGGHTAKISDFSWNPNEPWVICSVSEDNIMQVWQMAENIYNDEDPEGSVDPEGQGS
T1 sequence (Q6ZN18 whole entry partner): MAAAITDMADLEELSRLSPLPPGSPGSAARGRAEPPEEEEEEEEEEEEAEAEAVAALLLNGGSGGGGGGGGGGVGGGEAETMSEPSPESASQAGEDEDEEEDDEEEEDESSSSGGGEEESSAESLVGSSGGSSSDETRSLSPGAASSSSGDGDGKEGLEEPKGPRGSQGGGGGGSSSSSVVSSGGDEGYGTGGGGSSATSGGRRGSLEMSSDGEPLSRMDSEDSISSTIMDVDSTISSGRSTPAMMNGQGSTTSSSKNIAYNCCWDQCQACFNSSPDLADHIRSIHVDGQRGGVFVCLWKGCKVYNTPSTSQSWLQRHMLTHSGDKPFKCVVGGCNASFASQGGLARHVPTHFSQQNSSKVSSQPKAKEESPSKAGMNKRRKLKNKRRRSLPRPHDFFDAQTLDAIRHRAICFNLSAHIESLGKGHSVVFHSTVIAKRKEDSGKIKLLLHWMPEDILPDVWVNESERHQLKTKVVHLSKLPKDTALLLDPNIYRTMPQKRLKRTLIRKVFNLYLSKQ

Structure (SMILES): CCN(c1cc(C(=O)NCc2c(C)cc(C)[nH]c2=O)c(C)c2c1cnn2C)C1CCC(N2CC(OC)C2)CC1 (stereo not drawn) [D3]
- IC50 [1]: > 3 µM
- IC50 [2]: > 10 µM

Structure (SMILES): CCc1c(C(=O)NCc2c(C)cc(C)[nH]c2=O)cc2c(cnn2C)c1N(CC)[C@H]1CC[C@H](N2CC(OC)C2)CC1.Cl [Crystal form A]
- Phenomenon ([3]; 0.1M HCl): clear
- Solubility ([3]; 0.1M HCl): ≥62.8 mg/mL
- Phenomenon ([3]; H2O): clear
- Solubility ([3]; H2O): ≥81.4 mg/mL
- Phenomenon ([3]; pH 4.5 buffer): clear
- Solubility ([3]; pH 4.5 buffer): ≥43.8 mg/mL
- Phenomenon ([3]; pH 6.8 buffer): clear
- Solubility ([3]; pH 6.8 buffer): ≥74.6 mg/mL
- Content (%) ([4]; 4° C. 0 d): 96.62%
- Properties ([4]; 4° C. 0 d): Dark yellow
- RRT(%) 0.86 ([4]; 4° C. 0 d): 0.21%
- RRT(%) 0.89 ([4]; 4° C. 0 d): 0.11%
- RRT(%) 0.94 ([4]; 4° C. 0 d): 0.31%
- RRT(%) 0.97 ([4]; 4° C. 0 d): 0.09%
- RRT(%) 1.04 ([4]; 4° C. 0 d): 0.42%
- RRT(%) 1.07 ([4]; 4° C. 0 d): 0.67%
- RRT(%) 1.10 ([4]; 4° C. 0 d): 0.42%
- RRT(%) 1.13 ([4]; 4° C. 0 d): 0.18%
- RRT(%) 1.15 ([4]; 4° C. 0 d): 0.38%
- RRT(%) 1.16 ([4]; 4° C. 0 d): 0.60%
- Total impurities (%) ([4]; 4° C. 0 d): 3.38%
- Content (%) ([4]; 40° C./75% RH 4 d): 96.34%
- Properties ([4]; 40° C./75% RH 4 d): Dark yellow
- RRT(%) 0.86 ([4]; 40° C./75% RH 4 d): 0.21%
- RRT(%) 0.89 ([4]; 40° C./75% RH 4 d): 0.09%
- RRT(%) 0.94 ([4]; 40° C./75% RH 4 d): 0.28%
- RRT(%) 0.97 ([4]; 40° C./75% RH 4 d): 0.09%
- RRT(%) 1.04 ([4]; 40° C./75% RH 4 d): 0.49%
- RRT(%) 1.07 ([4]; 40° C./75% RH 4 d): 0.75%
- RRT(%) 1.10 ([4]; 40° C./75% RH 4 d): 0.51%
- RRT(%) 1.13 ([4]; 40° C./75% RH 4 d): 0.19%
- RRT(%) 1.15 ([4]; 40° C./75% RH 4 d): 0.41%
- RRT(%) 1.16 ([4]; 40° C./75% RH 4 d): 0.60%
- RRT(%) 1.20 ([4]; 40° C./75% RH 4 d): 0.07%
- Total impurities (%) ([4]; 40° C./75% RH 4 d): 3.66%
- Content (%) ([4]; 40° C./75% RH 7 d): 96.60%
- Properties ([4]; 40° C./75% RH 7 d): Dark yellow
- RRT(%) 0.86 ([4]; 40° C./75% RH 7 d): 0.22%
- RRT(%) 0.89 ([4]; 40° C./75% RH 7 d): 0.09%
- RRT(%) 0.94 ([4]; 40° C./75% RH 7 d): 0.31%
- RRT(%) 0.97 ([4]; 40° C./75% RH 7 d): 0.09%
- RRT(%) 1.04 ([4]; 40° C./75% RH 7 d): 0.47%
- RRT(%) 1.07 ([4]; 40° C./75% RH 7 d): 0.75%
- RRT(%) 1.10 ([4]; 40° C./75% RH 7 d): 0.32%
- RRT(%) 1.13 ([4]; 40° C./75% RH 7 d): 0.11%
- RRT(%) 1.15 ([4]; 40° C./75% RH 7 d): 0.38%
- RRT(%) 1.16 ([4]; 40° C./75% RH 7 d): 0.59%
- Total impurities (%) ([4]; 40° C./75% RH 7 d): 3.40%
- solid state stability ([4]; 40° C./75% RH, 4 and 7 days): stable
- Content (%) ([4]; 60° C. 4 d): 85.19%
- Properties ([4]; 60° C. 4 d): Dark yellow
- RRT(%) 0.86 ([4]; 60° C. 4 d): 0.15%
- RRT(%) 0.89 ([4]; 60° C. 4 d): 0.14%
- RRT(%) 0.94 ([4]; 60° C. 4 d): 0.67%
- RRT(%) 0.97 ([4]; 60° C. 4 d): 0.56%
- RRT(%) 1.04 ([4]; 60° C. 4 d): 1.25%
- RRT(%) 1.07 ([4]; 60° C. 4 d): 10.65%
- RRT(%) 1.10 ([4]; 60° C. 4 d): 0.29%
- RRT(%) 1.13 ([4]; 60° C. 4 d): 0.08%
- RRT(%) 1.15 ([4]; 60° C. 4 d): 0.44%
- RRT(%) 1.16 ([4]; 60° C. 4 d): 0.52%
- RRT(%) 1.20 ([4]; 60° C. 4 d): 0.05%
- Total impurities (%) ([4]; 60° C. 4 d): 14.81%
- Content (%) ([4]; 60° C. 7 d): 75.90%
- Properties ([4]; 60° C. 7 d): Dark yellow
- RRT(%) 0.86 ([4]; 60° C. 7 d): 0.11%
- RRT(%) 0.89 ([4]; 60° C. 7 d): 0.07%
- RRT(%) 0.92 ([4]; 60° C. 7 d): 0.22%
- RRT(%) 0.94 ([4]; 60° C. 7 d): 0.63%
- RRT(%) 0.97 ([4]; 60° C. 7 d): 0.66%
- RRT(%) 1.04 ([4]; 60° C. 7 d): 1.28%
- RRT(%) 1.07 ([4]; 60° C. 7 d): 19.89%
- RRT(%) 1.10 ([4]; 60° C. 7 d): 0.21%
- RRT(%) 1.13 ([4]; 60° C. 7 d): 0.05%
- RRT(%) 1.15 ([4]; 60° C. 7 d): 0.38%
- RRT(%) 1.16 ([4]; 60° C. 7 d): 0.51%
- RRT(%) 1.20 ([4]; 60° C. 7 d): 0.09%
- Total impurities (%) ([4]; 60° C. 7 d): 24.10%
- change in crystal form on storage ([4]; 60° C. and 40° C./75% RH, 4 and 7 days): the crystal form has not changed
- change of impurities ([4]; 60° C., 4 and 7 days): the impurities increase obviously

Structure (SMILES): CCN(c1cc(C(=O)NCc2c(C)cc(C)[nH]c2=O)c(C)c2c1cnn2C)C1CCC(N(C)C)CC1 (stereo not drawn) [D2]
- IC50 [1]: > 3 µM
- IC50 [2]: 4.82 µM
